Source: patent US12384797B2, “Thioeno[3,2-b] pyridin-7-amine compounds for treating familial dysautonomia” (PTC THERAPEUTICS, INC., priority 2019, dated 2025)

These compounds were tested on Elongator complex protein 1 (ELP1, also referred to as IKBKAP) (assay: IKBKAP-HTRF assay (IKBKAP protein in lysates of FD patient-derived fibroblasts)). Conditions: 48 hours incubation, 7-point concentration curve.
Assay type: cell-based, human
Experimental: The assay is used for the quantitative determination of Elongator complex protein 1 (ELP1, also referred to as IKBKAP) concentration in cell lysates using the HTRF® (Homogeneous Time-Resolved Fluorescence) technology. IKBKAP is detected in a sandwich HTRF assay by use of an anti-IKAP antibody labeled with a donor and an anti-IKAP antibody labeled with an acceptor.
Cells were thawed and incubated in DMEM-10% FBS for 72 hours. Cells were trypsinized, counted, and re-suspended to a concentration of 50,000 cells/mL in DMEM-10% FBS. A 199 μL aliquot of the cell suspensions were plated at 10,000 cells per well in a 96 well microtiter plate and incubated for 3 to 5 hours. […] Test compounds were serially diluted 3.16-fold in 100% DMSO to generate a 7-point concentration curve. A 1 μL aliquot of 200× compound solution was transferred to cell-containing wells, and cells were incubated for 48 hours in a cell culture incubator (37° C., 5% CO2, 100% relative humidity). Triplicate samples were set up for each compound concentration. After 48 hours, the supernatant was removed from the cells and 50 μL of the 1×LB4 lysis buffer, containing protease inhibitors, was added to the cells and incubated with shaking at room temperature for 1 hour. A 36 μL aliquot of this lysate was subsequently transferred to the 384-well plate containing 4 μL of the antibody solution (1:50 dilution of anti IKAP d2 and anti-IKAP K(9+8) in detection buffer). The 384-well plate was then centrifuged for 1 minute to bring the solutions to the bottom of the plate and incubated overnight at 4° C. Fluorescence for each well of the plate at 665 nm and 620 nm was measured was on the EnVision plate reader (Perkin Elmer). The ΔF for each sample is calculated by:
[formula] wherein Signal is the normalized fluorescence for each sample well and Blank is the average normalized average fluorescence for the Blank control wells.
The maximum fold increase (MFI) in IKBKAP protein abundance for compounds of Formula (I) or a form thereof relative to the vehicle control are provided in Table 1. MFI was calculated by dividing the ΔF value for each sample well by the sample ΔF for the vehicle control wells.
The EC2x for IKBKAP protein expression obtained from the 7-point concentration curve generated for each test compound according to the protocol in Biological Example 1 are also provided in Table 1. The term “EC2x for IKBKAP protein expression” is defined as the concentration of test compound that is effective in producing two times the amount of IKBKAP protein in a FD patient cell compared to the amount produced from the DMSO vehicle control.

Row | SMILES | EC2x for IKBKAP protein expression (concentration producing two times the amount of IKBKAP protein vs DMSO vehicle control) | MFI (maximum fold increase in IKBKAP protein abundance relative to the vehicle control)
1 | N[C@@H](CO)Cc1cc2nc(Cl)cc(NCc3ccco3)c2s1 [Compound 17, (2R)-2-amino-3-(5-chloro-7-{[(furan-2-yl)methyl]amino}thieno[3,2-b]pyridin-2-yl)propan-1-ol] | ***** (≤0.005 μM is indicated by five stars (*****)) | **** (between >3.9 and ≤4.9 is indicated by four stars (****))
2 | C[C@H](N)Cc1sc2c(NCc3cccs3)cc(Cl)nc2c1OC(F)F [Compound 139, 2-[(2S)-2-aminopropyl]-5-chloro-3-(difluoromethoxy)-N-[(thiophen-2-yl)methyl]thieno[3,2-b]pyridin-7-amine] | ***** (≤0.005 μM is indicated by five stars (*****)) | **** (between >3.9 and ≤4.9 is indicated by four stars (****))
3 | C[C@H](N)C(=O)c1sc2c(NCc3ccco3)cc(Cl)nc2c1Br [Compound 157, (2S)-2-amino-1-(3-bromo-5-chloro-7-{[(furan-2-yl)methyl]amino}thieno[3,2-b]pyridin-2-yl)propan-1-one] | *** (between >0.02 μM and ≤0.5 μM is indicated by three stars (***)) | **** (between >3.9 and ≤4.9 is indicated by four stars (****))
4 | Cc1c(C[C@@H](N)CC#N)sc2c(NCc3cccs3)cc(Cl)nc12 [Compound 105, (3S)-3-amino-4-(5-chloro-3-methyl-7-{[(thiophen-2-yl)methyl]amino}thieno[3,2-b]pyridin-2-yl)butanenitrile] | ***** (≤0.005 μM is indicated by five stars (*****)) | ***** (>4.9 is indicated by five stars (*****))
5 | CN[C@@H](C)Cc1sc2c(NCc3ccco3)cc(Cl)nc2c1C [Compound 42, 5-chloro-N-[(furan-2-yl)methyl]-3-methyl-2-[(2S)-2-(methylamino)propyl]thieno[3,2-b]pyridin-7-amine] | **** (between >0.005 μM and ≤0.02 μM is indicated by four stars (****)) | ***** (>4.9 is indicated by five stars (*****))
6 | N[C@@H](CO)Cc1sc2c(NCc3ccco3)cc(Cl)nc2c1Cl [Compound 39, (2R)-2-amino-3-(3,5-dichloro-7-{[(furan-2-yl)methyl]amino}thieno[3,2-b]pyridin-2-yl)propan-1-ol] | ***** (≤0.005 μM is indicated by five stars (*****)) | ***** (>4.9 is indicated by five stars (*****))
7 | Cc1c(C[C@@H](N)C(=O)Nc2cccc(Cl)c2)sc2c(NCc3ccco3)cc(Cl)nc12 [Compound 143, 3-(5-chloro-7-{[(furan-2-yl)methyl]amino}-3-methylthieno[3,2-b]pyridin-2-yl)-N-(3-chlorophenyl)-D-alaninamide] | *** (between >0.02 μM and ≤0.5 μM is indicated by three stars (***)) | ***** (>4.9 is indicated by five stars (*****))
8 | N#Cc1csc2c(NCc3cccs3)cc(Cl)nc12 [Compound 13, 5-chloro-7-{[(thiophen-2-yl)methyl]amino}thieno[3,2-b]pyridine-3-carbonitrile] | – | ***** (>4.9 is indicated by five stars (*****))
9 | CC(O)c1cc2nc(Cl)cc(NCc3ccco3)c2s1 (stereo not shown) [Compound 4, 1-(5-chloro-7-{[(furan-2-yl)methyl]amino}thieno[3,2-b]pyridin-2-yl)ethan-1-ol] | * (An EC2x>1 μM is indicated by one star (*)) | ** (between >1.9 and ≤2.9 is indicated by two stars (**))
10 | Cc1csc2c(NCc3ccco3)cc(Cl)nc12 [Compound 2, 5-chloro-N-[(furan-2-yl)methyl]-3-methylthieno[3,2-b]pyridin-7-amine] | *** (between >0.02 μM and ≤0.5 μM is indicated by three stars (***)) | ***** (>4.9 is indicated by five stars (*****))
11 | Cc1c(C[C@@H](N)CF)sc2c(NCc3ccco3)cc(Cl)nc12 [Compound 81, 2-[(2R)-2-amino-3-fluoropropyl]-5-chloro-N-[(furan-2-yl)methyl]-3-methylthieno[3,2-b]pyridin-7-amine] | ***** (≤0.005 μM is indicated by five stars (*****)) | ***** (>4.9 is indicated by five stars (*****))
12 | Cc1c(C[C@H](N)CF)sc2c(NCc3ccco3)cc(Cl)nc12 [Compound 59, 2-[(2S)-2-amino-3-fluoropropyl]-5-chloro-N-[(furan-2-yl)methyl]-3-methylthieno[3,2-b]pyridin-7-amine] | *** (between >0.02 μM and ≤0.5 μM is indicated by three stars (***)) | ** (between >1.9 and ≤2.9 is indicated by two stars (**))
13 | CS(=O)(=O)C[C@H](N)Cc1sc2c(NCc3ccco3)cc(Cl)nc2c1Br [Compound 117, 2-[(2R)-2-amino-3-(methanesulfonyl)propyl]-3-bromo-5-chloro-N-[(furan-2-yl)methyl]thieno[3,2-b]pyridin-7-amine] | **** (between >0.005 μM and ≤0.02 μM is indicated by four stars (****)) | ***** (>4.9 is indicated by five stars (*****))
14 | N[C@@H](CCF)Cc1sc2c(NCc3ccco3)cc(Cl)nc2c1Cl [Compound 93, 2-[(2S)-2-amino-4-fluorobutyl]-3,5-dichloro-N-[(furan-2-yl)methyl]thieno[3,2-b]pyridin-7-amine] | ***** (≤0.005 μM is indicated by five stars (*****)) | ***** (>4.9 is indicated by five stars (*****))
15 | COC[C@H](N)Cc1sc2c(NCc3ccco3)cc(Cl)nc2c1Cl [Compound 40, 2-[(2R)-2-amino-3-methoxypropyl]-3,5-dichloro-N-[(furan-2-yl)methyl]thieno[3,2-b]pyridin-7-amine] | ***** (≤0.005 μM is indicated by five stars (*****)) | ***** (>4.9 is indicated by five stars (*****))
16 | C[C@H](N)C(F)c1sc2c(NCc3cccs3)cc(Cl)nc2c1Br (stereo partly drawn) [Compound 158, 2-[(2S)-2-amino-1-fluoropropyl]-3-bromo-5-chloro-N-[(thiophen-2-yl)methyl]thieno[3,2-b]pyridin-7-amine] | ***** (≤0.005 μM is indicated by five stars (*****)) | ***** (>4.9 is indicated by five stars (*****))
17 | Cc1c(C[C@@H](N)CCF)sc2c(NCc3cccs3)cc(Cl)nc12 [Compound 92, 2-[(2S)-2-amino-4-fluorobutyl]-5-chloro-3-methyl-N-[(thiophen-2-yl)methyl]thieno[3,2-b]pyridin-7-amine] | ***** (≤0.005 μM is indicated by five stars (*****)) | ***** (>4.9 is indicated by five stars (*****))
18 | C[C@H](N)Cc1sc2c(NCc3cccs3)cc(C#N)nc2c1Cl [Compound 112, 2-[(2S)-2-aminopropyl]-3-chloro-7-{[(thiophen-2-yl)methyl]amino}thieno[3,2-b]pyridine-5-carbonitrile] | ***** (≤0.005 μM is indicated by five stars (*****)) | ***** (>4.9 is indicated by five stars (*****))
19 | N[C@@H](CO)Cc1cc2nc(Cl)cc(NCc3cccs3)c2s1 [Compound 162, (2R)-2-amino-3-(5-chloro-7-{[(thiophen-2-yl)methyl]amino}thieno[3,2-b]pyridin-2-yl)propan-1-ol] | ***** (≤0.005 μM is indicated by five stars (*****)) | **** (between >3.9 and ≤4.9 is indicated by four stars (****))
